For one assay, the target named is T1, PTPN2 (i.e., TC-PTP) (Homo sapiens, UniProt P17706).
T1 sequence (P17706 1-415): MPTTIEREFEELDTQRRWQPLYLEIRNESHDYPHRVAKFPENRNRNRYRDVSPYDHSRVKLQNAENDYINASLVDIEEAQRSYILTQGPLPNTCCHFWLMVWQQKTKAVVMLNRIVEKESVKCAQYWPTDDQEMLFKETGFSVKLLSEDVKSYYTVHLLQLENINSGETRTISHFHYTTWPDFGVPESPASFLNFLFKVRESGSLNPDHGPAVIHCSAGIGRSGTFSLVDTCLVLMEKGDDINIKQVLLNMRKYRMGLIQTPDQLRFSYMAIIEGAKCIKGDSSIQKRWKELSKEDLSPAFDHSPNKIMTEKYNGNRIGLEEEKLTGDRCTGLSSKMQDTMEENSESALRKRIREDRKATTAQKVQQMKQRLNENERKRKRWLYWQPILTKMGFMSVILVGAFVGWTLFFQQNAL
Nature of the assay: Phosphatase activity assay (DiFMUP substrate), PTPN2. The assay is classed as biochemical. Conditions: compounds binned ≤1 uM or >1 uM. An outline of the steps: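 Using a Km-level DiFMUP substrate and 0.025 ng/ul PTPN2, phosphatase activity is tracked by DiFMU emission at 450 nm over about 15–30 minutes. Initial rates at ten inhibitor concentrations give IC50 by four-parameter fitting.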

For another assay, the target named is T2, PTPN1 (i.e., PTP1B) (Homo sapiens, UniProt P18031).
T2 sequence (P18031 1-435): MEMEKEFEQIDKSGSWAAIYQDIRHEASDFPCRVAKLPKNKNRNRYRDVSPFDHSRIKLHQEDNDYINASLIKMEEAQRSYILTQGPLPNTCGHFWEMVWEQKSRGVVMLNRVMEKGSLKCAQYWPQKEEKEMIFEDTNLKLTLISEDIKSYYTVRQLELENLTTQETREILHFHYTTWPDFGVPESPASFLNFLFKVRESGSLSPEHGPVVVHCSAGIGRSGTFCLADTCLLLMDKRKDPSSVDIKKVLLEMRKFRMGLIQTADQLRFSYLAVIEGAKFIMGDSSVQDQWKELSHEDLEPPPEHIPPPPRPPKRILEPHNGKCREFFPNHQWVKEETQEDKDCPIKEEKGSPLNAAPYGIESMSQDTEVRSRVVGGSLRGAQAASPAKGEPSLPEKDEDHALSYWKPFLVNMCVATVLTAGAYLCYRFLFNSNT
The assay is described as follows: Phosphatase activity assay (DiFMUP substrate), PTP1B. The assay is classed as biochemical. Conditions: compounds binned ≤1 uM or >1 uM. The method, boiled down: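 First, serially diluted inhibitor is mixed about 2 minutes with enzyme in pH 7.5 HEPES/NaCl/EDTA/DTT/Tween-20 buffer. Next, DiFMUP is added at the enzyme's Km, approximately 45 μM for PTPN2. Finally, DiFMU appearance is read continuously at room temperature and rates are fitted for IC50.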

One may read the IC50 as the concentration at which inhibition is half-maximal.

As for `N#CC1(n2cc(-c3ccc(O)c(N4CC(=O)NS4(=O)=O)c3F)cn2)CC1` [Compound 484, 1-(4-(3-(1,1-dioxido-4-oxo-1,2,5-thiadiazolidin-2-yl)-2-fluoro-4-hydroxyphenyl)-1H-pyrazol-1-yl)cyclopropane-1-carbonitrile], the half-inhibitory concentration (IC50) at PTPN2 (i.e., TC-PTP) was no more than 1000 nM; on PTPN1 (i.e., PTP1B), no more than 1000 nM.
`O=C1CN(c2c(O)ccc(C3CCC(NS(=O)(=O)C4CC4)CC3)c2F)S(=O)(=O)N1` (stereo not drawn) [Compound 450, N-(4-(3-(1,1-dioxido-4-oxo-1,2,5-thiadiazolidin-2-yl)-2-fluoro-4-hydroxyphenyl)cyclohexyl)cyclopropanesulfonamide]: the IC50 was no more than 1000 nM on PTPN2 (i.e., TC-PTP) and no more than 1000 nM on PTPN1 (i.e., PTP1B).
Turning to `CN1CCC(n2cc(-c3ccc(O)c(N4CC(=O)NS4(=O)=O)c3F)cn2)CC1` [Compound 259, 5-(2-fluoro-6-hydroxy-3-(1-(1-methylpiperidin-4-yl)-1H-pyrazol-4-yl)phenyl)-1,2,5-thiadiazolidin-3-one 1,1-dioxide], the IC50 at PTPN2 (i.e., TC-PTP) was no more than 1000 nM; on PTPN1 (i.e., PTP1B) it was no more than 1000 nM.
Turning to `O=C1CN(c2c(O)ccc(-c3cnn(CC(F)(F)F)c3)c2F)S(=O)(=O)N1` [Compound 366, 5-(2-fluoro-6-hydroxy-3-(1-(2,2,2-trifluoroethyl)-1H-pyrazol-4-yl)phenyl)-1,2,5-thiadiazolidin-3-one 1,1-dioxide], the IC50 on PTPN2 (i.e., TC-PTP) was no more than 1000 nM; on PTPN1 (i.e., PTP1B) it was no more than 1000 nM.
In the case of `O=C1CN(c2c(O)ccc(-c3cnn(C4(C(F)F)CC4)c3)c2F)S(=O)(=O)N1` [Compound 542, 5-(3-(1-(1-(difluoromethyl)cyclopropyl)-1H-pyrazol-4-yl)-2-fluoro-6-hydroxyphenyl)-1,2,5-thiadiazolidin-3-one 1,1-dioxide], the IC50 was no more than 1000 nM on PTPN2 (i.e., TC-PTP) and no more than 1000 nM at PTPN1 (i.e., PTP1B).
For `O=C1CN(c2c(O)ccc(-c3cc(C4=CCOCC4)n[nH]3)c2F)S(=O)(=O)N1` [Compound 402, 5-(3-(3-(3,6-dihydro-2H-pyran-4-yl)-1H-pyrazol-5-yl)-2-fluoro-6-hydroxyphenyl)-1,2,5-thiadiazolidin-3-one 1,1-dioxide], the 50% inhibitory concentration (IC50) on PTPN2 (i.e., TC-PTP) was no more than 1000 nM; at PTPN1 (i.e., PTP1B) it was no more than 1000 nM.
For the compound `Cn1cnc(-c2ccc(O)c(N3CC(=O)NS3(=O)=O)c2F)n1` [Compound 237, 5-(2-fluoro-6-hydroxy-3-(1-methyl-1H-1,2,4-triazol-3-yl)phenyl)-1,2,5-thiadiazolidin-3-one 1,1-dioxide], the half-maximal inhibitory concentration (IC50) at PTPN2 (i.e., TC-PTP) is no more than 1000 nM; at PTPN1 (i.e., PTP1B), no more than 1000 nM.
`Cc1n[nH]c(C)c1-c1ccc(O)c(N2CC(=O)NS2(=O)=O)c1F` [Compound 164, 5-(3-(3,5-dimethyl-1H-pyrazol-4-yl)-2-fluoro-6-hydroxyphenyl)-1,2,5-thiadiazolidin-3-one 1,1-dioxide]: the concentration for half-maximal inhibition (IC50) on PTPN2 (i.e., TC-PTP) was greater than 1000 nM; at PTPN1 (i.e., PTP1B), greater than 1000 nM.
As to `O=C1CN(c2c(O)ccc(-c3cnn(Cc4ccc(F)cc4)c3)c2F)S(=O)(=O)N1` [Compound 186, 5-(2-fluoro-3-(1-(4-fluorobenzyl)-1H-pyrazol-4-yl)-6-hydroxyphenyl)-1,2,5-thiadiazolidin-3-one 1,1-dioxide], the IC50 on PTPN2 (i.e., TC-PTP) was no more than 1000 nM; at PTPN1 (i.e., PTP1B), no more than 1000 nM.
Consider `CS(=O)(=O)Nc1ccc(-c2ccc(O)c(N3CC(=O)NS3(=O)=O)c2F)cc1` [Compound 236, N-(3′-(1,1-dioxido-4-oxo-1,2,5-thiadiazolidin-2-yl)-2′-fluoro-4′-hydroxy-[1,1′-biphenyl]-4-yl)methanesulfonamide], for which the IC50 at PTPN2 (i.e., TC-PTP) was no more than 1000 nM; at PTPN1 (i.e., PTP1B), no more than 1000 nM.
With `O=C1CN(c2c(O)ccc(-c3cc(N4CC(c5ccccc5)C4)n[nH]3)c2F)S(=O)(=O)N1` [Compound 356, 5-(2-fluoro-6-hydroxy-3-(3-(3-phenylazetidin-1-yl)-1H-pyrazol-5-yl)phenyl)-1,2,5-thiadiazolidin-3-one 1,1-dioxide], the concentration for half-maximal inhibition (IC50) at PTPN2 (i.e., TC-PTP) was no more than 1000 nM; at PTPN1 (i.e., PTP1B) it was no more than 1000 nM.
For the compound `O=C1CN(c2c(O)ccc(-c3cc(CCC4CC4)n[nH]3)c2F)S(=O)(=O)N1` [Compound 452, 5-(3-(3-(2-cyclopropylethyl)-1H-pyrazol-5-yl)-2-fluoro-6-hydroxyphenyl)-1,2,5-thiadiazolidin-3-one 1,1-dioxide], the IC50 on PTPN2 (i.e., TC-PTP) was no more than 1000 nM; on PTPN1 (i.e., PTP1B), no more than 1000 nM.
Regarding `O=C1CN(c2c(O)ccc(C3=CCC(NCC4CC4)CC3)c2F)S(=O)(=O)N1` (stereo not drawn) [Compound 315, 5-(4′-((cyclopropylmethyl)amino)-2-fluoro-4-hydroxy-2′,3′,4′,5′-tetrahydro-[1,1′-biphenyl]-3-yl)-1,2,5-thiadiazolidin-3-one 1,1-dioxide], the IC50 at PTPN2 (i.e., TC-PTP) is no more than 1000 nM; on PTPN1 (i.e., PTP1B) it was no more than 1000 nM.
With `O=C1CN(c2c(O)ccc(-c3cnn(CC4CC4)c3)c2F)S(=O)(=O)N1` [Compound 131, 5-(3-(1-(cyclopropylmethyl)-1H-pyrazol-4-yl)-2-fluoro-6-hydroxyphenyl)-1,2,5-thiadiazolidin-3-one 1,1-dioxide], the IC50 on PTPN2 (i.e., TC-PTP) was no more than 1000 nM; on PTPN1 (i.e., PTP1B), no more than 1000 nM.
On to `O=C1CN(c2c(O)ccc(C3=CC4CCC3N4)c2F)S(=O)(=O)N1` (stereo not drawn) [Compound 475, 5-(3-(7-azabicyclo[2.2.1]hept-2-en-2-yl)-2-fluoro-6-hydroxyphenyl)-1,2,5-thiadiazolidin-3-one 1,1-dioxide], for which the IC50 is greater than 1000 nM at PTPN2 (i.e., TC-PTP) and no more than 1000 nM on PTPN1 (i.e., PTP1B).
The corresponding values for `Cn1nc(-c2ccc(O)c(N3CC(=O)NS3(=O)=O)c2F)cc1CCC1CC1` [Compound 463, 5-(3-(5-(2-cyclopropylethyl)-1-methyl-1H-pyrazol-3-yl)-2-fluoro-6-hydroxyphenyl)-1,2,5-thiadiazolidin-3-one 1,1-dioxide] are no more than 1000 nM and no more than 1000 nM.
Take `O=C1CN(c2c(O)ccc(-c3cc(C(=O)N4CCOCC4)n[nH]3)c2F)S(=O)(=O)N1` [Compound 336, 5-(2-fluoro-6-hydroxy-3-(3-(morpholine-4-carbonyl)-1H-pyrazol-5-yl)phenyl)-1,2,5-thiadiazolidin-3-one 1,1-dioxide]: the IC50 on PTPN2 (i.e., TC-PTP) is no more than 1000 nM; on PTPN1 (i.e., PTP1B) it was no more than 1000 nM.
On to `C=Cc1cc(-c2ccc(O)c(N3CC(=O)NS3(=O)=O)c2F)[nH]n1` [Compound 312, 5-(2-fluoro-6-hydroxy-3-(3-vinyl-1H-pyrazol-5-yl)phenyl)-1,2,5-thiadiazolidin-3-one 1,1-dioxide], for which the IC50 at PTPN2 (i.e., TC-PTP) was no more than 1000 nM; on PTPN1 (i.e., PTP1B) it was no more than 1000 nM.
On to `N#CCn1nc(-c2ccc(O)c(N3CC(=O)NS3(=O)=O)c2F)cc1C1CC1` [Compound 349, 2-(5-cyclopropyl-3-(3-(1,1-dioxido-4-oxo-1,2,5-thiadiazolidin-2-yl)-2-fluoro-4-hydroxyphenyl)-1H-pyrazol-1-yl)acetonitrile], for which the IC50 at PTPN2 (i.e., TC-PTP) is no more than 1000 nM; at PTPN1 (i.e., PTP1B), no more than 1000 nM.
`O=C1CN(c2c(O)ccc(-c3cc(-c4ccccc4)no3)c2F)S(=O)(=O)N1` [Compound 401, 5-(2-fluoro-6-hydroxy-3-(3-phenylisoxazol-5-yl)phenyl)-1,2,5-thiadiazolidin-3-one 1,1-dioxide]: the IC50 was no more than 1000 nM at PTPN2 (i.e., TC-PTP) and no more than 1000 nM on PTPN1 (i.e., PTP1B).
`O=C1CN(c2c(O)ccc(-c3cn(-c4cccc(F)c4)cn3)c2F)S(=O)(=O)N1` [Compound 181, 5-(2-fluoro-3-(1-(3-fluorophenyl)-1H-imidazol-4-yl)-6-hydroxyphenyl)-1,2,5-thiadiazolidin-3-one 1,1-dioxide]: the IC50 is no more than 1000 nM on PTPN2 (i.e., TC-PTP) and no more than 1000 nM at PTPN1 (i.e., PTP1B).
As to `O=C1CN(c2c(O)ccc(-c3cnn(C(F)(F)C(F)F)c3)c2F)S(=O)(=O)N1` [Compound 410, 5-(2-fluoro-6-hydroxy-3-(1-(1,1,2,2-tetrafluoroethyl)-1H-pyrazol-4-yl)phenyl)-1,2,5-thiadiazolidin-3-one 1,1-dioxide], the IC50 is no more than 1000 nM at PTPN2 (i.e., TC-PTP) and no more than 1000 nM at PTPN1 (i.e., PTP1B).
As for `O=C1CN(c2c(O)ccc(-c3cc(C4CC4(F)F)no3)c2F)S(=O)(=O)N1` (stereo not drawn) [Compound 490, 5-(3-(3-(2,2-difluorocyclopropyl)isoxazol-5-yl)-2-fluoro-6-hydroxyphenyl)-1,2,5-thiadiazolidin-3-one 1,1-dioxide], the half-maximal inhibitory concentration (IC50) at PTPN2 (i.e., TC-PTP) was no more than 1000 nM; on PTPN1 (i.e., PTP1B) it was no more than 1000 nM.
As for `O=C1CN(c2c(O)ccc(C3=CCN(S(=O)(=O)C4CC4)CC3)c2F)S(=O)(=O)N1` [Compound 355, 5-(3-(1-(cyclopropylsulfonyl)-1,2,3,6-tetrahydropyridin-4-yl)-2-fluoro-6-hydroxyphenyl)-1,2,5-thiadiazolidin-3-one 1,1-dioxide], the IC50 was no more than 1000 nM at PTPN2 (i.e., TC-PTP) and no more than 1000 nM at PTPN1 (i.e., PTP1B).

These data come from patent US20240398828A1, “HETERO-ATOM CONTAINING COMPOUNDS AND USES THEREOF” (Kumquat Biosciences Inc., priority 2021, published 2024).
